Reference: US9504729B2, “Antiangiogenic small molecules and methods of use” (The United States of America, as represented by the …, priority 2009, dated 2016)

Tested on: angiogenesis genes in dermal microvascular endothelial cells
Assay: Real time RT-PCR of angiogenesis gene expression during endothelial tube formation
Type: cell-based
Conditions: 1 μM SM, 24 hours

CC1CCN(CC[S-])CC1.O.O.[Cl][Pt+] [compound 292596]
Log2 fold-change of gene expression: 1839: −0.3
Log2 fold-change of gene expression: 4247: −0.3
Log2 fold-change of gene expression: 5569: 0.1
Log2 fold-change of gene expression: 8131: 0.3
Log2 fold-change of gene expression: 9569: −2.0
Log2 fold-change of gene expression: 10988: 0.9
Log2 fold-change of gene expression: 23001: 0.1
Log2 fold-change of gene expression: 55332: −8.6
Log2 fold-change of gene expression: 57722: −0.2
Log2 fold-change of gene expression: 58488: 0.2
Log2 fold-change of gene expression: 90780: −0.8
Log2 fold-change of gene expression: 134265: −1.6
Log2 fold-change of gene expression: AKT1: −0.8
Log2 fold-change of gene expression: ANGPT1: 2.2
Log2 fold-change of gene expression: ANGPT2: 0.8
Log2 fold-change of gene expression: ANGPTL3: 1.0
Log2 fold-change of gene expression: ANGPTL4: −3.2
Log2 fold-change of gene expression: ANPEP: 0.8
Log2 fold-change of gene expression: ANTXR1: −2.1
Log2 fold-change of gene expression: APOE: 5.1
Log2 fold-change of gene expression: ARHGEF1: −1.6
Log2 fold-change of gene expression: Acvrl1: −1.6
Log2 fold-change of gene expression: Adcy4: 4.3
Log2 fold-change of gene expression: BAL1: 1.7
Log2 fold-change of gene expression: BMP1: −0.4
Log2 fold-change of gene expression: C1orf54: −2.2
Log2 fold-change of gene expression: CALD1: 1.6
Log2 fold-change of gene expression: CCL2: 2.4
Log2 fold-change of gene expression: CCL11: 2.1
Log2 fold-change of gene expression: CD248: 0.2
Log2 fold-change of gene expression: CDH5: −0.2
Log2 fold-change of gene expression: CENTD3: 0.1
Log2 fold-change of gene expression: CLIC1: 0.6
Log2 fold-change of gene expression: COL4A3: 1.9
Log2 fold-change of gene expression: COL18A1: 2.3
Log2 fold-change of gene expression: COMT: −0.7
Log2 fold-change of gene expression: CST4: 0.3
Log2 fold-change of gene expression: CTTNBP2NL: −3.4
Log2 fold-change of gene expression: CXCL3: −3.8
Log2 fold-change of gene expression: CXCL5: 5.6
Log2 fold-change of gene expression: CXCL6: 2.2
Log2 fold-change of gene expression: CXCL9: 1.5
Log2 fold-change of gene expression: CXCL10: 2.5
Log2 fold-change of gene expression: Calcr1: −4.3
Log2 fold-change of gene expression: Caskin2: −2.3
Log2 fold-change of gene expression: Ccbp2: 0.0
Log2 fold-change of gene expression: Cldn5: −0.6
Log2 fold-change of gene expression: DGKG: 1.8
Log2 fold-change of gene expression: DKK3: −0.4
Log2 fold-change of gene expression: DLL4: −6.6
Log2 fold-change of gene expression: DUT: −1.2
Log2 fold-change of gene expression: EFNA1: 3.1
Log2 fold-change of gene expression: EFNA3: 0.5
Log2 fold-change of gene expression: EFNB2: −3.4
Log2 fold-change of gene expression: EGF: 2.2
Log2 fold-change of gene expression: ENG: −0.3
Log2 fold-change of gene expression: EPHB4: 0.9
Log2 fold-change of gene expression: EREG: 9.6
Log2 fold-change of gene expression: ESAM1: −2.0
Log2 fold-change of gene expression: EXTL3: −0.5
Log2 fold-change of gene expression: Egf17: −3.3
Log2 fold-change of gene expression: Ehd4: −1.0
Log2 fold-change of gene expression: Entpd1: −8.3
Log2 fold-change of gene expression: Epas1: 0.3
Log2 fold-change of gene expression: EphB1: 0.4
Log2 fold-change of gene expression: Erg: −6.4
Log2 fold-change of gene expression: FGF1: 4.8
Log2 fold-change of gene expression: FGF2: 2.5
Log2 fold-change of gene expression: FGFR3: 2.2
Log2 fold-change of gene expression: FIGF: 1.7
Log2 fold-change of gene expression: FLT1: −1.9
Log2 fold-change of gene expression: Fgd5: −1.0
Log2 fold-change of gene expression: GPCR124: −6.7
Log2 fold-change of gene expression: GRRP1: 0.2
Log2 fold-change of gene expression: Grp116: −3.1
Log2 fold-change of gene expression: HAND2: 1.7
Log2 fold-change of gene expression: HGF: 2.2
Log2 fold-change of gene expression: HIF1A: −2.1
Log2 fold-change of gene expression: HPSE: −0.3
Log2 fold-change of gene expression: Hspa12b: −3.3
Log2 fold-change of gene expression: ID1: 4.0
Log2 fold-change of gene expression: ID3: 1.0
Log2 fold-change of gene expression: IFNA1: 2.2
Log2 fold-change of gene expression: IFNB1: 2.6
Log2 fold-change of gene expression: IFNG: 6.5
Log2 fold-change of gene expression: IGF1: 0.6
Log2 fold-change of gene expression: IL1B: −4.1
Log2 fold-change of gene expression: IL6: 3.7
Log2 fold-change of gene expression: IL8: 5.1
Log2 fold-change of gene expression: ITGAV: −0.9
Log2 fold-change of gene expression: ITGB3: −1.8
Log2 fold-change of gene expression: Icam1: 0.5
Log2 fold-change of gene expression: Icam2: −0.4
Log2 fold-change of gene expression: JAG1: 0.5
Log2 fold-change of gene expression: KDR: −1.8
Log2 fold-change of gene expression: Kifc1: 1.6
Log2 fold-change of gene expression: LAMAS5: −0.3
Log2 fold-change of gene expression: LECT1: 1.4
Log2 fold-change of gene expression: LEP: 2.6
Log2 fold-change of gene expression: Lasts2: 0.4
Log2 fold-change of gene expression: Lrrk1: −1.5
Log2 fold-change of gene expression: MDK: −1.5
Log2 fold-change of gene expression: MMP2: 1.1
Log2 fold-change of gene expression: MMP9: 1.8
Log2 fold-change of gene expression: MMP11: −0.3
Log2 fold-change of gene expression: MRC2: −0.5
Log2 fold-change of gene expression: Mmm2: −2.4
Log2 fold-change of gene expression: Myo1b: −2.0
Log2 fold-change of gene expression: NID1: −3.6
Log2 fold-change of gene expression: NM023516: 0.2
Log2 fold-change of gene expression: NRP1: −2.3
Log2 fold-change of gene expression: NRP2: −3.2
Log2 fold-change of gene expression: Notch4: −0.6
Log2 fold-change of gene expression: Npr3: 0.7
Log2 fold-change of gene expression: PALD: −1.9
Log2 fold-change of gene expression: PDCD2: −1.1
Log2 fold-change of gene expression: PDGFA: 4.0
Log2 fold-change of gene expression: PECAM1: −1.8
Log2 fold-change of gene expression: PGF: −1.7
Log2 fold-change of gene expression: PLAU: −0.2
Log2 fold-change of gene expression: PLG: −0.4
Log2 fold-change of gene expression: PNMT: −0.7
Log2 fold-change of gene expression: PROK2: 2.0
Log2 fold-change of gene expression: PTGS1: 1.1
Log2 fold-change of gene expression: PTPRCAP: −0.5
Log2 fold-change of gene expression: Pltp: 0.5
Log2 fold-change of gene expression: Ptprb: −1.9
Log2 fold-change of gene expression: Ptprm: −0.8
Log2 fold-change of gene expression: RAMP2: −5.0
Log2 fold-change of gene expression: RASD2: −0.5
Log2 fold-change of gene expression: Rasip1: −0.5
Log2 fold-change of gene expression: S1PR1: 0.2
Log2 fold-change of gene expression: SERPINF1: 0.7
Log2 fold-change of gene expression: SPHK1: 1.8
Log2 fold-change of gene expression: STAB1: −0.5
Log2 fold-change of gene expression: Sdc4: 1.4
Log2 fold-change of gene expression: Sdpr: 0.8
Log2 fold-change of gene expression: Slc43a3: 0.6
Log2 fold-change of gene expression: Slco2a1: −1.0
Log2 fold-change of gene expression: TEK: 1.3
Log2 fold-change of gene expression: TGFA: 8.9
Log2 fold-change of gene expression: TGFB1: −0.8
Log2 fold-change of gene expression: TGFB2: 2.1
Log2 fold-change of gene expression: TGFBR1: 1.4
Log2 fold-change of gene expression: THBS1: −0.1
Log2 fold-change of gene expression: THBS2: 1.1
Log2 fold-change of gene expression: THY1: −5.8
Log2 fold-change of gene expression: TIMP1: 1.4
Log2 fold-change of gene expression: TIMP2: 0.4
Log2 fold-change of gene expression: TIMP3: −1.2
Log2 fold-change of gene expression: TNF: 6.1
Log2 fold-change of gene expression: TNS1: −0.5
Log2 fold-change of gene expression: TNS3: 1.3
Log2 fold-change of gene expression: TRA2B: 0.9
Log2 fold-change of gene expression: TYMP: −5.5
Log2 fold-change of gene expression: VEGFA: 0.4
Log2 fold-change of gene expression: VEGFC: 1.6
Log2 fold-change of gene expression: VGLL4: −2.8
Log2 fold-change of gene expression: Vwf: −2.6
Log2 fold-change of gene expression: copa: −0.5
Log2 fold-change of gene expression: itbp4: −1.5
Log2 fold-change of gene expression: ralb: −0.5
Log2 fold-change of gene expression: stard9: −0.9
Log2 fold-change of gene expression: B2M (1st listing (r49)): −2.0
Log2 fold-change of gene expression: HPRT1 (1st listing (r50)): −0.5
Log2 fold-change of gene expression: RPL13A (1st listing (r51)): 1.9
Log2 fold-change of gene expression: GADPH (1st listing (r52)): 0.3
Log2 fold-change of gene expression: ACTB (1st listing (r53)): 0.0
Log2 fold-change of gene expression: PLXDC1 (1st listing (r74)): 0.3
Log2 fold-change of gene expression: TNFAIP2 (1st listing (r91)): −0.2
Log2 fold-change of gene expression: Robo4 (1st listing (r95)): −1.2
Log2 fold-change of gene expression: 151516 (1st listing (r134)): 0.3
Log2 fold-change of gene expression: TNFAIP2 (2nd listing (r92)): −0.1
Log2 fold-change of gene expression: B2M (2nd listing (r97)): −1.6
Log2 fold-change of gene expression: HPRT1 (2nd listing (r98)): 0.1
Log2 fold-change of gene expression: RPL13A (2nd listing (r99)): 1.5
Log2 fold-change of gene expression: GADPH (2nd listing (r100)): 0.8
Log2 fold-change of gene expression: ACTB (2nd listing (r101)): −0.4
Log2 fold-change of gene expression: PLXDC1 (2nd listing (r104)): 0.2
Log2 fold-change of gene expression: 151516 (2nd listing (r139)): 0.3
Log2 fold-change of gene expression: Robo4 (2nd listing (r188)): 0.2
Log2 fold-change of gene expression: B2M (3rd listing (r145)): −0.4
Log2 fold-change of gene expression: HPRT1 (3rd listing (r146)): 0.4
Log2 fold-change of gene expression: RPL13A (3rd listing (r147)): 1.1
Log2 fold-change of gene expression: GADPH (3rd listing (r148)): −0.3
Log2 fold-change of gene expression: ACTB (3rd listing (r149)): −0.9
Log2 fold-change of gene expression: B2M (4th listing (r193)): −0.8
Log2 fold-change of gene expression: HPRT1 (4th listing (r194)): 0.1
Log2 fold-change of gene expression: RPL13A (4th listing (r195)): 0.6
Log2 fold-change of gene expression: GADPH (4th listing (r196)): 0.4
Log2 fold-change of gene expression: ACTB (4th listing (r197)): −0.1
